Data taken from patent US8471005B2 (Cephalon, Inc., priority 2008, dated 2013).
Like-named read-outs stand apart in the source and are kept apart here.

Tests used:
ALK = target: T1, ALK (Homo sapiens, UniProt Q9UM73); assay: ALK Kinase Assay (ELISA/TRF, PLC-γ substrate); assay type: biochemical; details: read-out: ALK Potency
T1 construct: host or cells: baculovirus expression system
Outline: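 Read-out is time-resolved fluorescence from a Eu-N1-labeled PT66 antibody that binds phosphorylated PLC-γ, the substrate coated at 10 μg/mL in TBS. ALK at 30 ng/ml starts the reaction, which runs 15 minutes at 37° C.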

JAK2 = target: T2, JAK2 (Homo sapiens, UniProt O60674); assay: Recombinant Human JAK2 Kinase Assay (TRF); assay type: biochemical; details: read-out: JAK2 Potency
T2 construct: host or cells: baculovirus expression system
Outline: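 Kinase activity of baculovirus-expressed JAK2 is followed on a surface-immobilised biotinylated peptide, with the reaction run for 20 min at room temperature in buffer containing 0.2 μM ATP and manganese. Phosphorylation is read with Eu-N1 PY100 antibody.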

[1] = ALK kinase inhibition, 1 μM ATP
[2] = JAK2 kinase inhibition, 0.2 μM ATP

T1 sequence (Q9UM73 19-1620): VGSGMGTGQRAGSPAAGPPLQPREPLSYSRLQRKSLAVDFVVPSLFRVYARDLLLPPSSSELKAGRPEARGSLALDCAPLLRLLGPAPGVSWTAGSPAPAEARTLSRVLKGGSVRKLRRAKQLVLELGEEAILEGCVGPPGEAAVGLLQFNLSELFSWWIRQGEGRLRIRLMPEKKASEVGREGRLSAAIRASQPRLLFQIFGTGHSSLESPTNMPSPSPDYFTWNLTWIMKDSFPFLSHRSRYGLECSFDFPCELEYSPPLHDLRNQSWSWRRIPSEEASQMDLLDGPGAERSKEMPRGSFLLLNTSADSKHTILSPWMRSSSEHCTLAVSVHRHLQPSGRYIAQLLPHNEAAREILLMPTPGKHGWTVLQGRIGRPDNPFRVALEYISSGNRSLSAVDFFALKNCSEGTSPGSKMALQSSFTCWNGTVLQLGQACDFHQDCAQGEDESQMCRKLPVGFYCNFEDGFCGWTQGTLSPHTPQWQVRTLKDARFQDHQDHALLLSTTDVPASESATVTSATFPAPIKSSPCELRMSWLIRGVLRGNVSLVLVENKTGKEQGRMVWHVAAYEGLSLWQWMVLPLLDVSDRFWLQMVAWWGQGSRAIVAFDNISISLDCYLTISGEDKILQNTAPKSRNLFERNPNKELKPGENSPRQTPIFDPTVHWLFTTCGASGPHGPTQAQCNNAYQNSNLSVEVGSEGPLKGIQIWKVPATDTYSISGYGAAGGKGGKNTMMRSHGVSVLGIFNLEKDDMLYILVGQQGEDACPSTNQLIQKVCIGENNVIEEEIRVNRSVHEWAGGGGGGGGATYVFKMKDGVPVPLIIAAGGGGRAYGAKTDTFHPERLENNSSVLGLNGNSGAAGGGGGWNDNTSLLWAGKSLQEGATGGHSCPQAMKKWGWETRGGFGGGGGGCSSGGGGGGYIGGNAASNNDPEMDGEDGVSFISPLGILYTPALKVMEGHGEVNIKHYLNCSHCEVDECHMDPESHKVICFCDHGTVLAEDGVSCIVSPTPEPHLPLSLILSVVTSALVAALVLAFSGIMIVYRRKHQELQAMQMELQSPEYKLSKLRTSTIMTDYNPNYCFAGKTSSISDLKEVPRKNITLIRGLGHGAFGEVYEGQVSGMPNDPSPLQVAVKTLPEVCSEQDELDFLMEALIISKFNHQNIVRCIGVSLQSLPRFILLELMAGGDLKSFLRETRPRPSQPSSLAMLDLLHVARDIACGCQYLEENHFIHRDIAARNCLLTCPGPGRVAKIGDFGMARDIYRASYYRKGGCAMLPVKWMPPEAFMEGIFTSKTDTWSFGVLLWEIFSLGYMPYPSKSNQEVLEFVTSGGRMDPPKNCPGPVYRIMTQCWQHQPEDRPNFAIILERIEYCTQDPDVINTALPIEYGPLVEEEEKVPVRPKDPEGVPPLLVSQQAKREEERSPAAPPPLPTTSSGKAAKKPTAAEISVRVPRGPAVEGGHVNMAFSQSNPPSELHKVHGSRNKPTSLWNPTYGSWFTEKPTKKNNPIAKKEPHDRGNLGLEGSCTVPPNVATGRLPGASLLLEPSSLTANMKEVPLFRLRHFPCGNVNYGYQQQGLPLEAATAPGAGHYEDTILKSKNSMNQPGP
T2 sequence (O60674 whole entry): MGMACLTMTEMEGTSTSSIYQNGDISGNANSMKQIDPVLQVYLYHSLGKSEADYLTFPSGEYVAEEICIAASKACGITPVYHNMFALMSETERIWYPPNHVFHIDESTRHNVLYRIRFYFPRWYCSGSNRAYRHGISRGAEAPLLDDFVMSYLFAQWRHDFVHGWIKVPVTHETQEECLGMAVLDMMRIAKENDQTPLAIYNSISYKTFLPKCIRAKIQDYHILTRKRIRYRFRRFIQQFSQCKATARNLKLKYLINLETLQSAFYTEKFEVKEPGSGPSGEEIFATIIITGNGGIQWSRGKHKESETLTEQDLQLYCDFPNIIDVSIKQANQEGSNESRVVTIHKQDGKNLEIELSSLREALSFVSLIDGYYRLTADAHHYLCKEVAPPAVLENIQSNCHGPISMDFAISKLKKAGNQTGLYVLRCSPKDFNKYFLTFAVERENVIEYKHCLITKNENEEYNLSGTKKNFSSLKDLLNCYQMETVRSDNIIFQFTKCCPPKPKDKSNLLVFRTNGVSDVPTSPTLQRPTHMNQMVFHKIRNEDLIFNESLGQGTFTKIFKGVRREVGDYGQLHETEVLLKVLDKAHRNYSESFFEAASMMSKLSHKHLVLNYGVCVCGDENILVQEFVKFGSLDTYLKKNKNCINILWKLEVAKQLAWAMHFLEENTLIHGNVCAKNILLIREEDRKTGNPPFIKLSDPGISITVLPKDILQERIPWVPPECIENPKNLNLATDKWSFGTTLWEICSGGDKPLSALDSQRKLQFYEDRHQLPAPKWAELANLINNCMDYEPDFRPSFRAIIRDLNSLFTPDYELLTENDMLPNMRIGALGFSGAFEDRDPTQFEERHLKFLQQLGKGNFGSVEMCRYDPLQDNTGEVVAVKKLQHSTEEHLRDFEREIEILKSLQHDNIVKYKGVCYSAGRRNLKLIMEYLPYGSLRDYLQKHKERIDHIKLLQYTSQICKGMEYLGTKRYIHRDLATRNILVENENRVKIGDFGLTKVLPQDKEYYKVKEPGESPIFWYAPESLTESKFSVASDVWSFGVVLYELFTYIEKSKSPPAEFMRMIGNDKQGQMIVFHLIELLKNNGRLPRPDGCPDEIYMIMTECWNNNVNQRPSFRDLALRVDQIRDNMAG

IC50 (ALK; ALK Kinase Inhibition)	IC50 (JAK2; JAK2 Kinase Inhibition)	IC50 (ALK; [1])	IC50 (JAK2; [2])	Molecule
< 100 nM	< 100 nM	–	–	CNC(=O)c1ccc(-c2ccc3cnc(Nc4ccc(N5CCC(N6CCN(C)CC6)CC5)cc4OC)nn23)cc1 [Example 242, 4-(2-{2-Methoxy-4-[4-(4-methyl-piperazin-1-yl)-piperidin-1-yl]-phenylamino}-pyrrolo[2,1-f][1,2,4]triazin-7-yl)-N-methyl-benzamide]
–	–	< 100 nM	100 to 1000 nM	COc1cc2c(cc1Nc1ncc3ccc(-c4cccc5c4OCC5)n3n1)CCN(CC(N)=O)CC2 [Example 708, 2-{7-[7-(2,3-Dihydro-benzofuran-7-yl)-pyrrolo[2,1-f][1,2,4]triazin-2-ylamino]-8-methoxy-1,2,4,5-tetrahydro-3-benzazepin-3-yl}-acetamide]
> 10000 nM	< 100 nM	–	–	c1cc(N2CCOCC2)ccc1Nc1ncc2ccc(C3CCCCC3)n2n1 [Example 127, (7-Cyclohexyl-pyrrolo[2,1-f][1,2,4]triazin-2-yl)-(4-morpholin-4-yl-phenyl)-amine]
< 100 nM	< 100 nM	–	–	COc1cc(N2CCC(N3CCOCC3)CC2)ccc1Nc1ncc2ccc(-c3ccccc3F)n2n1 [Example 1473, [7-(2-Fluoro-phenyl)-pyrrolo[2,1-f][1,2,4]triazin-2-yl]-[2-methoxy-4-(4-morpholin-4-yl-piperidin-1-yl)-phenyl]-amine]
100 to 1000 nM	< 100 nM	–	–	CN1C(=O)Cc2cc(Nc3ncc4ccc(-c5cccc(NS(C)(=O)=O)c5)n4n3)ccc21 [Example 361, N-{3-[2-(1-Methyl-2-oxo-2,3-dihydro-1H-indol-5-ylamino)-pyrrolo[2,1-f][1,2,4]triazin-7-yl]-phenyl}-methanesulfonamide]
–	–	< 100 nM	< 100 nM	CN1CCN(c2cccc(Nc3ncc4ccc(-c5cccc(CCC#N)c5)n4n3)c2)CC1 [Example 1153, 3-(3-{2-[3-(4-Methyl-piperazin-1-yl)-phenylamino]-pyrrolo[2,1-f][1,2,4]triazin-7-yl}-phenyl)-propionitrile]
1000 to 10000 nM	1000 to 10000 nM	–	–	COc1cc(C2CCN(CC(N)=O)CC2)ccc1Nc1ncc2ccc(-c3ncccc3OC)n2n1 [Example 1532, 2-(4-{3-Methoxy-4-[7-(3-methoxy-pyridin-2-yl)-pyrrolo[2,1-f][1,2,4]triazin-2-ylamino]-phenyl}-piperidin-1-yl)-acetamide]
–	–	< 100 nM	100 to 1000 nM	COc1cc([C@@H]2CCN(CC(N)=O)C[C@@H]2O)ccc1Nc1ncc2ccc(-c3ccccc3N(C)S(C)(=O)=O)n2n1 (racemic) [Example 842, (±)-2-[(3R,4S)-3-Hydroxy-4-(4-{7-[2-(methanesulfonyl-methyl-amino)-phenyl]-pyrrolo[2,1-f][1,2,4]triazin-2-ylamino}-3-methoxy-phenyl)-piperidin-1-yl]-acetamide]
100 to 1000 nM	< 100 nM	–	–	CN1CCN(c2ccc(Nc3ncc4ccc(-c5ccccc5CO)n4n3)cc2)CC1 [Example 1504, (2-{2-[4-(4-Methyl-piperazin-1-yl)-phenylamino]-pyrrolo[2,1-f][1,2,4]triazin-7-yl}-phenyl)-methanol]
–	–	< 100 nM	1000 to 10000 nM	COc1cc(C2CCN(C[C@@H](O)CO)CC2)c(F)cc1Nc1ncc2ccc(-c3ccccc3N(C)S(C)(=O)=O)n2n1 [Example 551, N-[2-(2-{4-[1-((R)-2,3-Dihydroxy-propyl)-piperidin-4-yl]-5-fluoro-2-methoxy-phenylamino}-pyrrolo[2,1-f][1,2,4]triazin-7-yl)-phenyl]-N-methyl-methanesulfonamide]
–	–	< 100 nM	100 to 1000 nM	COc1cc(C2CCNCC2)ccc1Nc1ncc2c(C)cc(-c3ccccc3N(C)S(C)(=O)=O)n2n1 [Example 1263, N-{2-[2-(2-Methoxy-4-piperidin-4-yl-phenylamino)-5-methyl-pyrrolo[2,1-f][1,2,4]triazin-7-yl]-phenyl}-N-methyl-methanesulfonamide]
–	–	100 to 1000 nM	< 100 nM	COc1ccccc1-c1ccc2cnc(Nc3ccc4nc(CO)[nH]c4c3)nn12 [Example 1067, {6-[7-(2-Methoxy-phenyl)-pyrrolo[2,1-f][1,2,4]triazin-2-ylamino]-1H-benzoimidazol-2-yl}-methanol]
100 to 1000 nM	< 100 nM	–	–	Fc1cc(N2CCOCC2)ccc1Nc1ncc2ccc(-c3cccnc3)n2n1 [Example 372, (2-Fluoro-4-morpholin-4-yl-phenyl)-(7-pyridin-3-yl-pyrrolo[2,1-f][1,2,4]triazin-2-yl)-amine]
< 100 nM	< 100 nM	–	–	COc1cc(N2CCN(C)CC2)ccc1Nc1ncc2ccc(-c3cccc(S(C)(=O)=O)c3)n2n1 [Example 76, [7-(3-Methanesulfonyl-phenyl)-pyrrolo[2,1-f][1,2,4]triazin-2-yl]-[2-methoxy-4-(4-methyl-piperazin-1-yl)-phenyl]-amine]
–	–	< 100 nM	< 100 nM	COc1ccccc1-c1ccc2cnc(Nc3cccc(C4CCN(C)CC4)c3OC)nn12 [Example 775, [2-Methoxy-3-(1-methyl-piperidin-4-yl)-phenyl]-[7-(2-methoxy-phenyl)-pyrrolo[2,1-f][1,2,4]triazin-2-yl]-amine]
–	–	> 10000 nM	< 100 nM	COc1ccc(-c2ccc3cnc(Nc4ccc5c(c4)N(C(C)=O)CCCC5)nn23)cn1 [Example 631, 1-{8-[7-(6-Methoxy-pyridin-3-yl)-pyrrolo[2,1-f][1,2,4]triazin-2-ylamino]-2,3,4,5-tetrahydro-benzo[b]azepin-1-yl}ethanone]
100 to 1000 nM	< 100 nM	–	–	CC(C)(C)NS(=O)(=O)c1cccc(-c2ccc3cnc(Nc4ccc5nc(CN6CCN(CCO)CC6)[nH]c5c4)nn23)c1 [Example 1520, N-tert-Butyl-3-(2-{2-[4-(2-hydroxy-ethyl)-piperazin-1-ylmethyl]-3H-benzimidazol-5-ylamino}-pyrrolo[2,1-f][1,2,4]triazin-7-yl)-benzenesulfonamide]
–	–	1000 to 10000 nM	< 100 nM	COCCn1cc(-c2ccc3cnc(Nc4cccc(N5CCN(C)CC5)c4)nn23)cn1 [Example 972, {7-[1-(2-Methoxy-ethyl)-1H-pyrazol-4-yl]-pyrrolo[2,1-f][1,2,4]triazin-2-yl}-[3-(4-methyl-piperazin-1-yl)-phenyl]-amine]
< 100 nM	< 100 nM	–	–	CC1(C)C(=O)Nc2ccc(Nc3ncc4ccc(-c5ccccc5N5CCCS5(=O)=O)n4n3)cc21 [Example 1556, 5-({7-[2-(1,1-Dioxido-1,2-thiazolidin-2-yl)phenyl]pyrrolo[2,1-f][1,2,4]triazin-2-yl}amino)-3,3-dimethyl-1,3-dihydro-2H-indol-2-one]
1000 to 10000 nM	< 100 nM	–	–	c1cncc(-c2ccc3cnc(Nc4cc[nH]n4)nn23)c1 [Example 124, (1H-Pyrazol-3-yl)-(7-pyridin-3-yl-pyrrolo[2,1-f][1,2,4]triazin-2-yl)-amine]
–	–	1000 to 10000 nM	< 100 nM	CN1CCOCc2cc(Nc3ncc4ccc(-c5ccc(S(C)(=O)=O)cc5)n4n3)ccc21 [Example 617, [7-(4-Methanesulfonyl-phenyl)-pyrrolo[2,1-f][1,2,4]triazin-2-yl]-(1-methyl-1,2,3,5-tetrahydro-benzo[e][1,4]oxazepin-7-yl)-amine]
–	–	< 100 nM	1000 to 10000 nM	COC[C@H](O)CN1CCN(Cc2ccc(Nc3ncc4ccc(-c5ccccc5N(C)S(C)(=O)=O)n4n3)c(OC)c2)CC1 [Example 1225, N-[2-(2-{4-[4-((R)-2-Hydroxy-3-methoxy-propyl)-piperazin-1-ylmethyl]-2-methoxy-phenylamino}-pyrrolo[2,1-f][1,2,4]triazin-7-yl)-phenyl]-N-methyl-methanesulfonamide]
100 to 1000 nM	< 100 nM	–	–	O=S1(=O)CCCN1c1cccc(-c2ccc3cnc(Nc4ccc5c(c4)CCC(N4CCOCC4)CC5)nn23)c1 (centres unmarked) [Example 1507, 7-[3-(1,1-Dioxido-1,2-thiazolidin-2-yl)phenyl]-N-[7-(morpholin-4-yl)-6,7,8,9-tetrahydro-5H-benzo[7]annulen-2-yl]pyrrolo[2,1-f][1,2,4]triazin-2-amine]
< 100 nM	< 100 nM	–	–	CN1CCN(c2ccc(Nc3ncc4ccc(-c5cccc(Cl)c5)n4n3)cc2)CC1 [Example 26, [7-(3-Chloro-phenyl)-pyrrolo[2,1-f][1,2,4]triazin-2-yl]-[4-(4-methyl-piperazin-1-yl)-phenyl]-amine]
> 10000 nM	< 100 nM	–	–	COc1ccc2c(c1)cc1cnc(Nc3ccc(N4CCOCC4)cc3)nn12 [Example 268, (7-Methoxy-[1,2,4]triazino[1,6-a]indol-2-yl)-(4-morpholin-4-yl-phenyl)-amine]
1000 to 10000 nM	< 100 nM	–	–	COCC(C)OC(=O)COc1ccccc1-c1ccc2cnc(Nc3ccc(N4CCN(C)CC4)c(F)c3)nn12 (centres unmarked) [Example 1397, (2-{2-[3-Fluoro-4-(4-methyl-piperazin-1-yl)-phenylamino]-pyrrolo[2,1-f][1,2,4]triazin-7-yl}-phenoxy)-acetic acid 2-methoxy-1-methyl-ethyl ester]

Molecule	IC50 (ALK; ALK Kinase Inhibition)	IC50 (JAK2; JAK2 Kinase Inhibition)	IC50 (ALK; [1])	IC50 (JAK2; [2])
CC(C)(C)NS(=O)(=O)c1cccc(-c2ccc3cnc(Nc4ccc5c(c4)CS(=O)(=O)C5)nn23)c1 [Example 663, N-tert-Butyl-3-[2-(2,2-dioxo-2,3-dihydro-1H-2$1(6)-benzo[c]thiophen-5-ylamino)-pyrrolo[2,1-f][1,2,4]triazin-7-yl]-benzenesulfonamide]	–	–	100 to 1000 nM	< 100 nM
2-Methyl-propane-2-sulfonic acid (3-{2-[4-(4-diethylamino-piperidin-1-yl)-phenylamino]-pyrrolo[2,1-f][1,2,4]triazin-7-yl}-phenyl)-amide [Example 1217]	–	–	< 100 nM	< 100 nM
